Results as given in patent US20190021380A1 (priority 2014, published 2019).
“And” between values parts separate entries of the source, which are not always exact repeats. Equal entries are not always repeated.

How the values were obtained:
[1] = target: T1, T1R1/T1R3 receptor (Felis catus, UniProt E3UMS2); assay: Example 8: agonist screening of transmembrane compounds on T1R1/T1R3 in HEK293 cells; assay type: cell-based, cat; details: for T1R1/T1R3 agonist: transmembrane compound tested at 0.01, 0.1 and 1 mM, HEK293 cells expressing T1R1/T1R3, calcium dye and/or luminescent reporter; for agonist profile assessment: transmembrane compound alone, in words
Protocol: (§1) HEK293 cells that stably express T1R3 and inducibly express T1R1 were exposed to a transmembrane compound. Activation of the T1R1/T1R3 receptor was detected by a change in intracellular calcium levels using a calcium sensitive fluorescent dye and/or a luminescent reporter system. […] A FLIPR® Tetra or a FlexStation® 3 was used for data capture.
Each transmembrane compound was tested at concentrations of 0.01 mM, 0.1 mM, and 1 mM. […] To generate the dose response curves, the transmembrane compound was tested at concentrations of between 0.0001 mM and 1.0 mM in the presence of GMP and Ala.

[2] = target: T1, T1R1/T1R3 receptor; assay: Example 8: PAM screening of transmembrane compounds with GMP and Ala on T1R1/T1R3 in HEK293 cells; assay type: cell-based, cat; details: for T1R1/T1R3 PAM: compound at 0.01, 0.1, 1 mM in combination with GMP+Ala mixtures (T1-T4), PAM if response to the combination is greater than the sum of the responses to compound alone and to GMP+Ala alone; for PAM profile assessment: in the presence of GMP and Alanine, in words
Text: as §1, with “to” for “to a”, “compound alone or in combination with Ala and GMP to activate the umami receptor.” for “compound.”
Dose response curves were generated for each transmembrane compound at concentrations of 0 (buffer only), 0.01, 0.1 and 1 mM, wherein each of the three concentrations of transmembrane compound was tested in combination with 0.03 mM GMP+100 mM Ala (T1); 0.6 mM GMP+10 mM Ala (T2); 0.1 mM GMP+60 mM Ala (T3) and 0.3 mM GMP+60 mM Ala (T4). The T4 mixture was also tested in a 2-fold dilution series (the T4(X) Concentration). In these experiments, the first test concentration was 2× (2 times) the T4 concentration. The subsequent test concentrations were 2-fold dilutions from that (1×, 0.5× etc.). This dilution series was tested with or without the addition of the test compound at a constant 0.3 mM concentration.
Activation of the umami receptor was also determined in the presence of 1 mM GMP+100 mM Ala to generate a “maximum” umami receptor activation level.

[3] = target: T1, T1R1/T1R3 receptor; assay: cell-based; assay type: cell-based
Text: (§2) HEK293 cells that stably express T1R3 and inducibly express T1R1 were exposed to transmembrane compounds alone or in combination with one or more amino acids and/or one or more nucleotides to activate the umami receptor. Activation of the T1R1/T1R3 receptor was detected by a change in intracellular calcium levels using a calcium sensitive fluorescent dye. Cells that express T1R3 but not T1R1 were used as a control. A FLIPR® Tetra or a FlexStation® 3 was used for data capture.
(§3) In each experiment, serial dilutions of up to 10 mM of the transmembrane compound were added to the T1R1/T1R3-expressing cells.

[4] = target: T1, T1R1/T1R3 receptor; assay: Example 6: activation of T1R1/T1R3 by transmembrane compounds, conducted as in Example 5; assay type: cell-based; details: T1R1/T1R3 EC50, +0.2 mM IMP
Text: as §2, §3

[5] = target: T1, T1R1/T1R3 receptor; assay type: cell-based; details: threshold in the presence of 0.2 mM IMP; CNBD = Could not be determined
Text: as §2, §3

| SMILES | T1R1/T1R3 agonist [1] | T1R1/T1R3 PAM [2] | further results |
| --- | --- | --- | --- |
| O=C(CN1C(=O)C(=O)N(Cc2ccccc2)C1=O)c1ccc(Cl)s1 [Formula 12, 1-benzyl-3-(2-(5-chlorothiophen-2-yl)-2-oxoethyl)imidazolidine-2,4,5-trione] | No | Weak PAM | – |
| O=C1C(=O)N(Cc2ccccc2)C(=S)N1Cc1ccccc1 [Formula 13, 1,3-dibenzyl-2-thioxoimidazolidine-4,5-dione] | No | No | – |
| CCCC(CCC)NC(=O)c1ccc2c(c1)OCO2 [Formula 14, N-(heptan-4-yl)benzo[d][1,3]dioxole-5-carboxamide] | Yes | Yes | – |
| COC(=O)[C@H](Cc1ccccc1)NCc1ccccc1.Cl [Formula 15, N-Benzyl-L-phenylalanine methyl ester hydrochloride] | Yes | Yes | – |
| COC(=O)[C@@H](Cc1ccccc1)NCc1ccccc1.Cl [Formula 16, N-Benzyl-D-Phenylalanine methyl ester hydrochloride] | Yes | Yes | – |
| COC(=O)[C@H](CC(C)C)NCc1ccccc1.Cl [Formula 18, Benzyl-L-leucine methyl ester hydrochloride] | Yes | Yes | – |
| COC(=O)C(NCc1ccccc1)c1ccccc1 (stereo not shown) [Formula 19, Methyl-2-benzylamino-2-phenylacetate] | Yes | Yes | – |
| Cl.N[C@@H](Cc1ccccc1)C(=O)OCc1ccccc1 [Formula 20, L-Phenylalanine benzyl ester hydrochloride] | Yes | Yes | – |
| N[C@@H](Cc1ccc(O)cc1)C(=O)OCc1ccccc1 [Formula 21, L-Tyrosine benzyl ester] | No | No | – |
| O=C(O)[C@H](Cc1ccc(O)cc1)NCc1ccccc1 [Formula 22, N-Benzyl-L-Tyrosine] | No | No | – |
| Cc1ccc(CNC(Cc2ccccc2)C(=O)O)cc1 (stereo not shown) [Formula 23, 2-((4-methylbenzyl)amino)-3-phenylpropanoic acid] | No | No | – |
| O=C1CC(=O)N(Cc2ccccc2)C(=O)N1Cc1ccccc1 [Formula 24, 1,3-dibenzylpyrimidine-2,4,6(1H,3H,5H)-trione] | Yes | No | – |
| Cl.N[C@@H](Cc1ccccc1)C(=O)OCc1ccccc1 [L-Phenylalanine benzyl ester hydrochloride] | – | – | agonist profile assessment [1]: agonist; PAM profile assessment [2]: PAM activity |
| COC(=O)C(NCc1ccccc1)c1ccccc1 (stereo not shown) [Methyl-2-benzylamino-2-phenylacetate] | – | – | agonist profile assessment [1]: agonist; PAM profile assessment [2]: PAM activity |
| CCCC(CCC)NC(=O)c1ccc2c(c1)OCO2 [N-(heptan-4-yl)benzo[d][1,3]dioxole-5-carboxamide] | – | – | agonist profile assessment [1]: agonist; PAM profile assessment [2]: PAM activity; Max resp ΔF/F +IMP (0.2 mM) ([3]; in the presence of 0.2 mM IMP): 1.4725 and 1.393 and 1.473; Max resp % of Ala +IMP (0.2 mM) ([3]; in the presence of 0.2 mM IMP, relative to Ala): 165.8% and 119.6%; Max resp ΔF/F +Alanine (20 mM) ([3]; in the presence of 20 mM alanine): 1.7725 and 1.2; Max resp % of IMP +Alanine (20 mM) ([3]; in the presence of 20 mM alanine, relative to IMP): 118.2% and 142.7% |
| COC(=O)[C@@H](Cc1ccccc1)NCc1ccccc1.Cl [N-Benzyl-D-Phenylalanine methyl ester hydrochloride] | – | – | agonist profile assessment [1]: agonist; PAM profile assessment [2]: PAM activity |
| COC(=O)[C@H](Cc1ccccc1)NCc1ccccc1 [N-Benzyl-L-phenylalanine methyl ester] | – | – | EC50 [4]: 20 ± 1 µM; Thres +IMP (0.2 mM) [5]: 0.003 mM; agonist profile assessment [1]: agonist; PAM profile assessment [2]: PAM activity |
